Assay results: the supplement of paper PMC10307832

Tests used:
Experiment in all cases: relative viability (nuclei count vs DMSO), 5 days (fraction); higher = more cells survive
A-427 = tested on: A-427
Summary of the method: (§1)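 One day after seeding in 1536-well plates, lung cancer cell lines were dosed by pin tool. Dosing was either single-drug or a fixed anchor-drug dose plus five library-drug doses (not always all listed) in √10 steps. After 5 days, nuclei were stained in one fix-and-stain step and counted on 4× images, and relative viability is the nuclei count of treated wells over that of vehicle wells, given as the median of duplicate plates.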

BEN = tested on: BEN
Summary of the method: as §1

COR-L23 = tested on: COR-L23
Summary of the method: as §1

EKVX = tested on: EKVX
Summary of the method: as §1

HCC-44 = tested on: HCC-44
Summary of the method: as §1

HCC-78 = tested on: HCC-78
Summary of the method: as §1

HOP-62 = tested on: HOP-62
Summary of the method: as §1

LC-2-ad = tested on: LC-2-ad
Summary of the method: as §1

LOU-NH91 = tested on: LOU-NH91
Summary of the method: as §1

LXF-289 = tested on: LXF-289
Summary of the method: as §1

NCI-H1650 = tested on: NCI-H1650
Summary of the method: as §1

NCI-H1734 = tested on: NCI-H1734
Summary of the method: as §1

NCI-H1793 = tested on: NCI-H1793
Summary of the method: as §1

NCI-H1993 = tested on: NCI-H1993
Summary of the method: as §1

NCI-H2023 = tested on: NCI-H2023
Summary of the method: as §1

NCI-H2347 = tested on: NCI-H2347
Summary of the method: as §1

NCI-H358 = tested on: NCI-H358
Summary of the method: as §1

NCI-H441 = tested on: NCI-H441
Summary of the method: as §1

NCI-H520 = tested on: NCI-H520
Summary of the method: as §1

NCI-H522 = tested on: NCI-H522
Summary of the method: as §1

NCI-H596 = tested on: NCI-H596
Summary of the method: as §1

SW 1573 = tested on: SW 1573
Summary of the method: as §1

## C=C1C(=O)O[C@@H](CCCCCCCC)[C@@H]1C(=O)O [C-75] + CC(=O)Nc1cccc(-n2c(=O)n(C3CC3)c(=O)c3c(Nc4ccc(I)cc4F)n(C)c(=O)c(C)c32)c1 [Trametinib] (partner 0.02 µM)
A-427; first compound 0.08 µM
  relative viability: 0.78
A-427; first compound 0.253 µM
  relative viability: 0.84
A-427; first compound 0.8 µM
  relative viability: 0.655
A-427; first compound 2.53 µM
  relative viability: 0.665
A-427; first compound 8 µM
  relative viability: 0.701
BEN; first compound 0.08 µM
  relative viability: 0.993
BEN; first compound 0.253 µM
  relative viability: 1.2
BEN; first compound 0.8 µM
  relative viability: 0.995
BEN; first compound 2.53 µM
  relative viability: 1.14
BEN; first compound 8 µM
  relative viability: 0.989
COR-L23; first compound 0.08 µM
  relative viability: 0.636
COR-L23; first compound 0.253 µM
  relative viability: 0.58
COR-L23; first compound 0.8 µM
  relative viability: 0.562
COR-L23; first compound 2.53 µM
  relative viability: 0.485
COR-L23; first compound 8 µM
  relative viability: 0.569
EKVX; first compound 0.08 µM
  relative viability: 0.344
EKVX; first compound 0.253 µM
  relative viability: 0.263
EKVX; first compound 0.8 µM
  relative viability: 0.31
EKVX; first compound 8 µM
  relative viability: 0.355
HCC-44; first compound 0.08 µM
  relative viability: 1.03
HCC-44; first compound 0.253 µM
  relative viability: 1.14
HCC-44; first compound 0.8 µM
  relative viability: 0.964
HCC-44; first compound 2.53 µM
  relative viability: 0.991
HCC-44; first compound 8 µM
  relative viability: 1.09
HCC-78; first compound 0.08 µM
  relative viability: 0.776
HCC-78; first compound 0.253 µM
  relative viability: 0.935
HCC-78; first compound 0.8 µM
  relative viability: 0.782
HCC-78; first compound 8 µM
  relative viability: 0.62
HOP-62; first compound 0.08 µM
  relative viability: 0.354
HOP-62; first compound 0.253 µM
  relative viability: 0.43
HOP-62; first compound 0.8 µM
  relative viability: 0.358
HOP-62; first compound 2.53 µM
  relative viability: 0.321
HOP-62; first compound 8 µM
  relative viability: 0.359
LC-2-ad; first compound 0.08 µM
  relative viability: 0.883
LC-2-ad; first compound 0.253 µM
  relative viability: 0.954
LC-2-ad; first compound 0.8 µM
  relative viability: 0.832
LC-2-ad; first compound 2.53 µM
  relative viability: 0.861
LC-2-ad; first compound 8 µM
  relative viability: 0.926
LOU-NH91; first compound 0.08 µM
  relative viability: 0.802
LOU-NH91; first compound 0.253 µM
  relative viability: 0.712
LOU-NH91; first compound 0.8 µM
  relative viability: 0.762
LOU-NH91; first compound 8 µM
  relative viability: 0.782
LXF-289; first compound 0.08 µM
  relative viability: 0.646
LXF-289; first compound 0.253 µM
  relative viability: 0.683
LXF-289; first compound 0.8 µM
  relative viability: 0.657
LXF-289; first compound 2.53 µM
  relative viability: 0.664
LXF-289; first compound 8 µM
  relative viability: 0.672
NCI-H1650; first compound 0.08 µM
  relative viability: 0.462
NCI-H1650; first compound 0.253 µM
  relative viability: 0.553
NCI-H1650; first compound 0.8 µM
  relative viability: 0.602
NCI-H1650; first compound 8 µM
  relative viability: 0.555
NCI-H1734; first compound 0.08 µM
  relative viability: 0.664
NCI-H1734; first compound 0.253 µM
  relative viability: 0.78
NCI-H1734; first compound 0.8 µM
  relative viability: 0.664
NCI-H1734; first compound 2.53 µM
  relative viability: 0.524
NCI-H1734; first compound 8 µM
  relative viability: 0.691
NCI-H1793; first compound 0.08 µM
  relative viability: 0.356
NCI-H1793; first compound 0.253 µM
  relative viability: 0.509
NCI-H1793; first compound 2.53 µM
  relative viability: 0.356
NCI-H1793; first compound 8 µM
  relative viability: 0.409
NCI-H1993; first compound 0.08 µM
  relative viability: 0.573
NCI-H1993; first compound 0.253 µM
  relative viability: 0.541
NCI-H1993; first compound 0.8 µM
  relative viability: 0.507
NCI-H1993; first compound 2.53 µM
  relative viability: 0.576
NCI-H1993; first compound 8 µM
  relative viability: 0.557
NCI-H2023; first compound 0.08 µM
  relative viability: 0.527
NCI-H2023; first compound 0.253 µM
  relative viability: 0.662
NCI-H2023; first compound 0.8 µM
  relative viability: 0.531
NCI-H2023; first compound 2.53 µM
  relative viability: 0.209
NCI-H2023; first compound 8 µM
  relative viability: 0.483
NCI-H2347; first compound 0.08 µM
  relative viability: 0.296
NCI-H2347; first compound 0.253 µM
  relative viability: 0.193
NCI-H2347; first compound 0.8 µM
  relative viability: 0.317
NCI-H2347; first compound 2.53 µM
  relative viability: 0.26
NCI-H2347; first compound 8 µM
  relative viability: 0.365
NCI-H358; first compound 0.08 µM
  relative viability: 0.158
NCI-H358; first compound 0.253 µM
  relative viability: 0.13
NCI-H358; first compound 0.8 µM
  relative viability: 0.151
NCI-H358; first compound 8 µM
  relative viability: 0.121
NCI-H441; first compound 0.08 µM
  relative viability: 0.569
NCI-H441; first compound 0.253 µM
  relative viability: 0.533
NCI-H441; first compound 0.8 µM
  relative viability: 0.406
NCI-H441; first compound 8 µM
  relative viability: 0.548
NCI-H520; first compound 0.08 µM
  relative viability: 0.689
NCI-H520; first compound 0.253 µM
  relative viability: 0.816
NCI-H520; first compound 0.8 µM
  relative viability: 0.593
NCI-H520; first compound 2.53 µM
  relative viability: 0.48
NCI-H520; first compound 8 µM
  relative viability: 0.533
NCI-H522; first compound 0.08 µM
  relative viability: 0.784
NCI-H522; first compound 0.253 µM
  relative viability: 0.61
NCI-H522; first compound 0.8 µM
  relative viability: 0.747
NCI-H522; first compound 2.53 µM
  relative viability: 0.845
NCI-H522; first compound 8 µM
  relative viability: 0.604
NCI-H596; first compound 0.08 µM
  relative viability: 1.02
NCI-H596; first compound 0.253 µM
  relative viability: 0.837
NCI-H596; first compound 0.8 µM
  relative viability: 0.815
NCI-H596; first compound 2.53 µM
  relative viability: 0.722
NCI-H596; first compound 8 µM
  relative viability: 0.744
SW 1573; first compound 0.08 µM
  relative viability: 0.586
SW 1573; first compound 0.253 µM
  relative viability: 0.596
SW 1573; first compound 0.8 µM
  relative viability: 0.547
SW 1573; first compound 2.53 µM
  relative viability: 0.553
SW 1573; first compound 8 µM
  relative viability: 0.557
